Values of other authors as cited in patent publication US7339052B2, “Phosphoramidite activator for oligonucleotide synthesis” (Honeywell International Inc., priority 2005, dated 2008).

c1ccc(CSc2nnn[nH]2)cc1 [BMT, 5-benzylmercaptotetrazole]
maximum solubility in acetonitrile: about 0.33 M
